Experiments:
human mPGES-1 = human mPGES-1 (Homo sapiens (Human), UniProt O14684); assay: mPGES-1 inhibitory activity test; format: biochemical; details: for inhibition at 0.01 µM: 10 nM test compound; for inhibition at 0.1 µM: 100 nM test compound; for IC50: microsomes of CHO-K1 cells expressing human mPGES-1, PGH2 1 μM, PGE2 by HTRF, read-out: mPGES-1 inhibition (IC50 nM)
Procedure, shortened: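 PGE2 formation was quantified by HTRF and reported as percent inhibition at 10 and 100 nM compound or as IC50. The 60-second reaction at 4° C used 1 μM PGH2, after a 20-minute 4° C preincubation of compound (1% DMSO final) with glutathione-supplemented (2.5 mM, pH 7.4) microsomes. The microsomes were from transiently transfected CHO-K1 cells expressing human mPGES-1.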

human A549 cells = assay: Inhibition test of PGE2 production using human A549 cells; format: cell-based; details: IL-1β stimulated A549 cells, 24 h, PGE2 by HTRF, read-out: A549 cell inhibition of PGE2 production IC50
Procedure, shortened: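 PGE2 (HTRF) and PGF2a (EIA) were quantified in medium after 24 h, 37°C IL-1β stimulation (5 ng/well) of human A549 cells that had received test compound 60 min beforehand (0.1% DMSO, 3% FBS RPMI). IC50 relative to the window between IL-1β-stimulated and unstimulated controls.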

Sequence of human mPGES-1 (O14684 whole entry): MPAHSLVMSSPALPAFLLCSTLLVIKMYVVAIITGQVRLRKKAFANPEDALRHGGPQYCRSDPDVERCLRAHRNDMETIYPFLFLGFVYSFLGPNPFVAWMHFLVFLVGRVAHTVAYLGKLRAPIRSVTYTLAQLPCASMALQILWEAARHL

SMILES	inhibition at 0.01 µM (human mPGES-1) [%]	inhibition at 0.1 µM (human mPGES-1) [%]	IC50 (human A549 cells) [nM]	IC50 (human mPGES-1) [nM]
O=C(Nc1cccc2c1cnn2-c1ccc(C(F)(F)F)cc1)c1cc(CNC(=O)C2CCC2)ccc1Cl [Example 29, 2-Chloro-5-{[(cyclobutylcarbonyl)amino]methyl}-N-{1-[4-(trifluoromethyl)phenyl]-1H-indazol-4-yl}benzamide]	–	–	6.7	4.5
COc1ccccc1-n1ncc2c(NC(=O)c3cc(CNC(=O)C4CC4)ccc3Cl)cccc21 [Example 13, 2-Chloro-5-{[(cyclopropylcarbonyl)amino]methyl}-N-[1-(2-methoxyphenyl)-1H-indazol-4-yl]benzamide]	–	–	505	2
CC(C)(C)c1ccc(-n2ncc3c(NC(=O)c4cc(CNC(=O)C5CC5)ccc4Cl)cccc32)cc1 [Example 14, N-[1-(4-tert-butylphenyl)-1H-indazol-4-yl]-2-chloro-5-{[(cyclopropylcarbonyl)amino]methyl}benzamide]	–	–	0.4	1.1
O=C(Nc1cccc2c1cnn2-c1ccc(C(F)(F)F)cc1)c1cc(CNC(=O)C(F)(F)F)ccc1Cl [Example 17, 2-Chloro-5-{[(trifluoroacetyl)amino]methyl}-N-{1-[4-(trifluoromethyl)phenyl]-1H-indazol-4-yl}benzamide]	–	–	1.6	17
O=C(Nc1cccc2c1cnn2-c1cccc(C(F)(F)F)c1)c1c(F)ccc(CNC(=O)C2CC2)c1F [Example 16, 3-{[(Cyclopropylcarbonyl)amino]methyl}-2,6-difluoro-N-{1-[3-(trifluoromethyl)phenyl]-1H-indazol-4-yl}benzamide]	–	–	9.7	6.3
COCCC(=O)NCc1ccc(Cl)c(C(=O)Nc2cccc3c2cnn3-c2ccc(C(F)(F)F)cc2)c1 [Example 47, 2-Chloro-5-{[(3-methoxypropanoyl)amino]methyl}-N-{1-[4-(trifluoromethyl)phenyl]-1H-indazol-4-yl}benzamide]	–	–	8.5	8

The next lines start with the values.

inhibition at 0.01 µM (human mPGES-1) [%]	inhibition at 0.1 µM (human mPGES-1) [%]	IC50 (human A549 cells) [nM]	IC50 (human mPGES-1) [nM]	SMILES
95	100	2.7	–	COCC(=O)NCc1ccc(Cl)c(C(=O)Nc2cccc3c2cnn3-c2ccc(OC)c(C(F)(F)F)c2)c1 [Example 265, 2-Chloro-5-{[(methoxyacetyl)amino]methyl}-N-{1-[4-methoxy-3-(trifluoromethyl)phenyl]-1H-indazol-4-yl}benzamide]
65	84	0.8	–	CC(C)(C)C(=O)NCc1ccc(C(F)(F)F)c(C(=O)Nc2cccc3c2cnn3-c2cccc(OC(F)(F)F)c2)c1 [Example 195, 5-{[(2,2-Dimethylpropanoyl)amino]methyl}-N-{1-[3-(trifluoromethoxy)phenyl]-1H-indazol-4-yl}-2-(trifluoromethyl)benzamide]
–	–	4	3.3	COc1ccc(-n2ncc3c(NC(=O)c4cc(CNC(=O)C(C)(C)C)ccc4Cl)cccc32)cc1 [Example 48, 2-Chloro-5-{[(2,2-dimethylpropanoyl)amino]methyl}-N-[1-(4-methoxyphenyl)-1H-indazol-4-yl]benzamide]
–	–	13.7	1	COc1ccc(-n2ncc3c(NC(=O)c4cc(CNC(=O)C(C)(C)C)ccc4Cl)cccc32)cn1 [Example 63, 2-Chloro-5-{[(2,2-dimethylpropanoyl)amino]methyl}-N-[1-(6-methoxypyridin-3-yl)-1H-indazol-4-yl]benzamide]
–	–	91.1	12.9	Cn1ncc2c(NC(=O)c3cc(CNC(=O)C4CC4)ccc3Cl)cccc21 [Example 112, 2-Chloro-5-{[(cyclopropylcarbonyl)amino]methyl}-N-(1-methyl-1H-indazol-4-yl)benzamide]
59	–	303	–	COCC(=O)NCc1ccc(Cl)c(C(=O)Nc2cccc3c2cnn3C)c1 [Example 207, 2-Chloro-5-{[(methoxyacetyl)amino]methyl}-N-(1-methyl-1H-indazol-4-yl)benzamide]
